From patent publication US20110086759A1, “CHEMICAL COMPOUNDS” (SYNGENTA CROP PROTECTION, INC., priority 2007, published 2011)

Experiments:
Type in all cases: in vivo
[1] = test system: Alopecurus myosuroides (ALOMY); assay: Pre-emergence biological efficacy, glasshouse pot test; conditions: 312 h
Outline: (§1)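 Compound was applied as a spray one day after sowing, at a final dose of 1000 or 250 g/ha. Plants grew under 14 h light, 24/16 °C and 65% humidity, and injury was assessed on day 13 on a 0–100 scale.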

[2] = test system: Amaranthus retoflexus (AMARE); assay: as above; conditions: Amaranthus retroflexus, 312 h
Outline: as §1

[3] = test system: Echinochloa crus-galli (ECHCG); assay: as above; conditions: 312 h
Outline: as §1

[4] = test system: Ipomea hederaceae (IPOHE); assay: as above; conditions: Ipomoea hederacea, 312 h
Outline: as §1

Setaria faberi (SETFA) [5] = assay: as above; conditions: 312 h
Outline: as §1

Solanum nigrum (SOLNI) [6] = assay: as above; conditions: 312 h
Outline: as §1

[7] = test system: Alopecurus myosuroides (ALOMY); assay: Post-emergence biological efficacy, glasshouse pot test; conditions: 312 h
Outline: (§2)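 Plants were sown in standard soil and grown 8 days in a glasshouse (24/16° C. day/night, 14 hours light, 65% humidity), then sprayed post-emergence at 1000 or 250 g/ha from acetone/water (50:50) with 0.5% Tween 20. Damage was scored visually after 13 days (0 = none, 100 = total).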

[8] = test system: Amaranthus retoflexus (AMARE); assay: as above; conditions: Amaranthus retroflexus, 312 h
Outline: as §2

[9] = test system: Echinochloa crus-galli (ECHCG); assay: as above; conditions: 312 h
Outline: as §2

[10] = test system: Ipomea hederaceae (IPOHE); assay: as above; conditions: Ipomoea hederacea, 312 h
Outline: as §2

Setaria faberi (SETFA) [11] = assay: as above; conditions: 312 h
Outline: as §2

Solanum nigrum (SOLNI) [12] = assay: as above; conditions: 312 h
Outline: as §2

[13] = pre-emergence, 1,000 g/ha, evaluated after 13 days (100=total damage; 0=no damage), read-out: Percentage damage ALOMY
[14] = pre-emergence, 1,000 g/ha, evaluated after 13 days (100=total damage; 0=no damage), read-out: Percentage damage AMARE
[15] = pre-emergence, 1,000 g/ha, evaluated after 13 days (100=total damage; 0=no damage), read-out: Percentage damage ECHCG
[16] = pre-emergence, 1,000 g/ha, evaluated after 13 days (100=total damage; 0=no damage), read-out: Percentage damage IPOHE
[17] = pre-emergence, 1,000 g/ha, evaluated after 13 days (100=total damage; 0=no damage), read-out: Percentage damage SETFA
[18] = pre-emergence, 1,000 g/ha, evaluated after 13 days (100=total damage; 0=no damage), read-out: Percentage damage SOLNI
[19] = post-emergence, 1,000 g/ha, evaluated after 13 days (100=total damage; 0=no damage), read-out: Percentage damage caused to weed species, ALOMY
[20] = post-emergence, 1,000 g/ha, evaluated after 13 days (100=total damage; 0=no damage), read-out: Percentage damage caused to weed species, AMARE
[21] = post-emergence, 1,000 g/ha, evaluated after 13 days (100=total damage; 0=no damage), read-out: Percentage damage caused to weed species, ECHCG
[22] = post-emergence, 1,000 g/ha, evaluated after 13 days (100=total damage; 0=no damage), read-out: Percentage damage caused to weed species, IPOHE
[23] = post-emergence, 1,000 g/ha, evaluated after 13 days (100=total damage; 0=no damage), read-out: Percentage damage caused to weed species, SETFA
[24] = post-emergence, 1,000 g/ha, evaluated after 13 days (100=total damage; 0=no damage), read-out: Percentage damage caused to weed species, SOLNI
[25] = pre-emergence, rate 1,000 g/ha, evaluated after 13 days (100=total damage to plant; 0=no damage), read-out: Percentage damage caused to weed species, ALOMY
[26] = pre-emergence, rate 1,000 g/ha, evaluated after 13 days (100=total damage to plant; 0=no damage), read-out: Percentage damage caused to weed species, AMARE
[27] = pre-emergence, rate 1,000 g/ha, evaluated after 13 days (100=total damage to plant; 0=no damage), read-out: Percentage damage caused to weed species, ECHCG
[28] = pre-emergence, rate 1,000 g/ha, evaluated after 13 days (100=total damage to plant; 0=no damage), read-out: Percentage damage caused to weed species, IPOHE
[29] = pre-emergence, rate 1,000 g/ha, evaluated after 13 days (100=total damage to plant; 0=no damage), read-out: Percentage damage caused to weed species, SETFA
[30] = pre-emergence, rate 1,000 g/ha, evaluated after 13 days (100=total damage to plant; 0=no damage), read-out: Percentage damage caused to weed species, SOLNI
[31] = Rate 1,000 g/ha, post-emergence spray, evaluated after 13 days (100=total damage to plant; 0=no damage to plant), read-out: Percentage damage caused to weed species, post-emergence, ALOMY
[32] = Rate 1,000 g/ha, post-emergence spray, evaluated after 13 days (100=total damage to plant; 0=no damage to plant), read-out: Percentage damage caused to weed species, post-emergence, AMARE
[33] = Rate 1,000 g/ha, post-emergence spray, evaluated after 13 days (100=total damage to plant; 0=no damage to plant), read-out: Percentage damage caused to weed species, post-emergence, ECHCG
[34] = Rate 1,000 g/ha, post-emergence spray, evaluated after 13 days (100=total damage to plant; 0=no damage to plant), read-out: Percentage damage caused to weed species, post-emergence, IPOHE
[35] = Rate 1,000 g/ha, post-emergence spray, evaluated after 13 days (100=total damage to plant; 0=no damage to plant), read-out: Percentage damage caused to weed species, post-emergence, SETFA
[36] = Rate 1,000 g/ha, post-emergence spray, evaluated after 13 days (100=total damage to plant; 0=no damage to plant), read-out: Percentage damage caused to weed species, post-emergence, SOLNI

SMILES | pest or weed control at 1000 g/ha [1, 13] [%] | pest or weed control at 1000 g/ha [2, 14] [%] | pest or weed control at 1000 g/ha [3, 15] [%] | pest or weed control at 1000 g/ha [4, 16] [%] | pest or weed control at 1000 g/ha (Setaria faberi (SETFA) [5]; [17]) [%] | pest or weed control at 1000 g/ha (Solanum nigrum (SOLNI) [6]; [18]) [%] | pest or weed control at 1000 g/ha [7, 19] [%] | pest or weed control at 1000 g/ha [8, 20] [%] | pest or weed control at 1000 g/ha [1, 25] [%] | pest or weed control at 1000 g/ha [2, 26] [%] | pest or weed control at 1000 g/ha [3, 27] [%] | pest or weed control at 1000 g/ha [4, 28] [%] | pest or weed control at 1000 g/ha (Setaria faberi (SETFA) [5]; [29]) [%] | pest or weed control at 1000 g/ha (Solanum nigrum (SOLNI) [6]; [30]) [%] | pest or weed control at 1000 g/ha [7, 31] [%] | pest or weed control at 1000 g/ha [8, 32] [%] | pest or weed control at 1000 g/ha [9, 33] [%] | pest or weed control at 1000 g/ha [10, 34] [%] | pest or weed control at 1000 g/ha (Setaria faberi (SETFA) [11]; [35]) [%] | pest or weed control at 1000 g/ha (Solanum nigrum (SOLNI) [12]; [36]) [%] | other results
COC(=O)c1nc(C2CC2)nc(NC(Cc2ccc(F)cc2)C(=O)OC)c1Cl (stereo not drawn) [Compound 4-284, 5-Chloro-2-cyclopropyl-4-[2-(4-fluorophenyl)-1-methoxycarbonyl-ethylamino]-6-methoxycarbonyl-pyrimidine] | 20 | 100 | 30 | 100 | 30 | 90 | 30 | 100 |  |  |  |  |  |  |  |  |  |  |  |  | pest or weed control at 1000 g/ha [9, 21]: 20%; pest or weed control at 1000 g/ha [10, 22]: 100%; pest or weed control at 1000 g/ha (Setaria faberi (SETFA) [11]; [23]): 40%; pest or weed control at 1000 g/ha (Solanum nigrum (SOLNI) [12]; [24]): 80%
COC(=O)c1nc(C2CC2)nc(NC(Cc2c[nH]c3ccccc23)C(=O)OC)c1Cl (stereo not drawn) [Compound 4-290, 5-Chloro-2-cyclopropyl-4-(2-indol-3-yl-1-methoxycarbonyl-ethylamino)-6-methoxycarbonyl-pyrimidine] | 20 | 80 | 40 | 90 | 30 | 80 | 30 | 100 |  |  |  |  |  |  |  |  |  |  |  |  | pest or weed control at 1000 g/ha [9, 21]: 30%; pest or weed control at 1000 g/ha [10, 22]: 70%; pest or weed control at 1000 g/ha (Setaria faberi (SETFA) [11]; [23]): 50%; pest or weed control at 1000 g/ha (Solanum nigrum (SOLNI) [12]; [24]): 80%
COC(=O)c1nc(C2CC2)nc(N(C)CC2OCCO2)c1Cl [Compound 5-54, 5-Chloro-2-cyclopropyl-4-[N-(1,3-dioxolan-2-yl)methyl-N-methyl-amino]-6-methoxycarbonyl-pyrimidine] |  |  |  |  |  |  |  |  | 0 | 50 | 0 | 30 | 0 | 0 | 0 | 80 | 0 | 60 | 30 | 30 | 
COC(=O)c1nc(C2CC2)nc(N(C)Cc2ccccc2Cl)c1Cl [Compound 5-61, 5-Chloro-4-[N-(2-chlorophenyl-methyl)-N-methyl-amino]-2-cyclopropyl-6-methoxycarbonyl-pyrimidine] |  |  |  |  |  |  |  |  | 30 | 70 | 40 | 70 | 40 | 20 | 20 | 100 | 80 | 90 | 80 | 90 | 
COC(=O)c1nc(C2CC2)nc(N(C)Cc2cccc(Cl)c2)c1Cl [Compound 5-62, 5-Chloro-4-[N-(3-chlorophenyl-methyl)-N-methyl-amino]-2-cyclo-propyl-6-methoxy-carbonylpyrimidine] |  |  |  |  |  |  |  |  | 0 | 100 | 0 | 60 | 10 | 20 | 20 | 100 | 30 | 90 | 40 | 80 | 
COC(=O)c1nc(C2CC2)nc(N(C)Cc2ccc(Cl)cc2)c1Cl [Compound 5-63, 5-Chloro-4-[N-(4-chlorophenyl-methyl)-N-methyl-amino]-2-cyclo-propyl-6-methoxy-carbonylpyrimidine] |  |  |  |  |  |  |  |  | 10 | 100 | 0 | 70 | 20 | 30 | 30 | 100 | 40 | 90 | 70 | 80 | 
